Test results reported in US8415469B2, “Compounds and methods for kinase modulation, and indications therefor” (Plexxikon Inc., priority 2005, dated 2013).

How the values were obtained:
Type in all cases: biochemical
[1] = target: T1, Kit (Homo sapiens, UniProt P10721); test: AlphaScreen kinase assay, Kit; details: read-out: IC50, activity toward kinase Kit
T1 construct: P1332.N6 BI PTP KIT M552-K948-X COD; His6 (N); made in house; host or cells: E. coli (PTP1B co-expressed)

[2] = target: T2, Fms (Homo sapiens, UniProt P07333); test: AlphaScreen kinase assay, Fms; details: read-out: IC50, activity toward kinase Fms
T2 construct: purchased Upstate Biotechnology
T2 sequence (P07333 20-972): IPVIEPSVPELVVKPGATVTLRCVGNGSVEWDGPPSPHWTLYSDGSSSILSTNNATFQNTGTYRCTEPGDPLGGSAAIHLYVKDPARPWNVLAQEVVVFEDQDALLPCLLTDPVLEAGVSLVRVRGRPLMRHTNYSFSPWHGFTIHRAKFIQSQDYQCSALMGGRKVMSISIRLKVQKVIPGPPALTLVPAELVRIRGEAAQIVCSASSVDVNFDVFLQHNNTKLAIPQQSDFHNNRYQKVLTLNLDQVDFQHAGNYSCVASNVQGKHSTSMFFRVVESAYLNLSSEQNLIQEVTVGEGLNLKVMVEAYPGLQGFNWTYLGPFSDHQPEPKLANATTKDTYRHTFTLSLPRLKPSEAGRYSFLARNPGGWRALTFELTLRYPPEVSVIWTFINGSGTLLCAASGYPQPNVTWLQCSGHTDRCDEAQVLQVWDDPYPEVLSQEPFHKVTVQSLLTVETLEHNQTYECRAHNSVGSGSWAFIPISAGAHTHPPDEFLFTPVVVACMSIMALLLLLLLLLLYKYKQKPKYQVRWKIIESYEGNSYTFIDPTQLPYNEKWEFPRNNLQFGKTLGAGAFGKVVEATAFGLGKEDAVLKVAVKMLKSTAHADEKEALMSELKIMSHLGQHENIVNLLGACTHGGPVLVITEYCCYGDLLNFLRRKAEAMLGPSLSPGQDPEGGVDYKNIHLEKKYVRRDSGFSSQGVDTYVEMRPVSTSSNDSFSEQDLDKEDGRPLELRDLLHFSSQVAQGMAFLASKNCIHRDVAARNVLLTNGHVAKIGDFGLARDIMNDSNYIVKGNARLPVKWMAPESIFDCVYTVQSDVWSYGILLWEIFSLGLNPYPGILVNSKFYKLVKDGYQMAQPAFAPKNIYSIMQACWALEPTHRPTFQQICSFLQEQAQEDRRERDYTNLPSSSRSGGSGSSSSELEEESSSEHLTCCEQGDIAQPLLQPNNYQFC

[3] = target: T3, Fak (Homo sapiens, UniProt Q05397); test: AlphaScreen kinase assay, Fak; details: read-out: IC50, activity toward kinase Fak
T3 construct: P1358.pFastBacHtb FAK S411-Q686-X; His6 with pFastBacHTb leader (TEV site) (N); made in house; host or cells: Sf9 (baculovirus)
T3 sequence (Q05397 411-686): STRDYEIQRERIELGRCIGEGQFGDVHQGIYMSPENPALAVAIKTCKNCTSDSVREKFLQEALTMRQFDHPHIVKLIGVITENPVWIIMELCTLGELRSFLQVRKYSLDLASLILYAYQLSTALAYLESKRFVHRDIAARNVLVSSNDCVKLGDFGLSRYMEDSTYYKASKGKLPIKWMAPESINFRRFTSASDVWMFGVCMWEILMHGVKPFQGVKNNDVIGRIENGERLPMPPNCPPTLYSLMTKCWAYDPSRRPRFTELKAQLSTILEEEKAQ

[4] = target: T4, FGFR1 (Homo sapiens, UniProt P11362, C488A/C584S); test: AlphaScreen kinase assay, FGFR1; details: read-out: IC50, activity toward kinase FGFR
T4 construct: P1351.pET N6 BI-PTP FGFR A458-E765-X C488A, C584S; made in house; host or cells: E. coli (PTP1B co-expressed)
T4 sequence (P11362 458-765 C488A/C584S): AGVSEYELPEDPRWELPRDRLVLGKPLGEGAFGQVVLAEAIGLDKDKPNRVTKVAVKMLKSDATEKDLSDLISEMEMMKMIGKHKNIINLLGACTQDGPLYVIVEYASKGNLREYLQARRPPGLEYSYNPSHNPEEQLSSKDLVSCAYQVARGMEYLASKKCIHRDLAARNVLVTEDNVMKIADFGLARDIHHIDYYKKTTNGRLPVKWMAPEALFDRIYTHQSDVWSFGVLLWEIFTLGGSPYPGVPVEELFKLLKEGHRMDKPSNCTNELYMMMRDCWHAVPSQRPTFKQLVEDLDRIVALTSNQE

[5] = target: T5, Yes (Homo sapiens, UniProt P07947); test: Z'-Lyte FRET kinase assay (Invitrogen), Yes; details: read-out: IC50, activity toward kinase Yes
T5 construct: purchased Invitrogen (Carlsbad, Calif.), screening service
T5 sequence (P07947 whole entry): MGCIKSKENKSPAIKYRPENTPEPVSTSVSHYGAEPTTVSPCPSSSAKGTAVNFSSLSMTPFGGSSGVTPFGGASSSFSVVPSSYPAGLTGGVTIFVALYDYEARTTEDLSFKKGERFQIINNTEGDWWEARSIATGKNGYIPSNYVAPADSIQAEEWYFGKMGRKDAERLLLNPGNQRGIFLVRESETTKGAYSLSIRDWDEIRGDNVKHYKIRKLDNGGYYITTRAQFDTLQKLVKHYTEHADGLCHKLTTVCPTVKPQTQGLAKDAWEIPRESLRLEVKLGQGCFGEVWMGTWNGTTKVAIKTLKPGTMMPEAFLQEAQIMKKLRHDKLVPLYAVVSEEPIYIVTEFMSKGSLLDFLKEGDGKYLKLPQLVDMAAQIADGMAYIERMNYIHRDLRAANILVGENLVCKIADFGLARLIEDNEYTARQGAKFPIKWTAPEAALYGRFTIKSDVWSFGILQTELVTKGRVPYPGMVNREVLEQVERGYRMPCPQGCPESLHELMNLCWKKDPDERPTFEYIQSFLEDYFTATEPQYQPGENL
Text: The effect of potential modulators of kinase activity can be measured in a variety of different assays known in the art. For example, direct radiometric, indirect FRET or AlphaScreen assays may be used to assess the level of phosphorylation of a substrate in the presence of test compounds in order to determine the inhibitory affect of the compound on the kinase. Invitrogen (Carlsbad, Calif.) uses a FRET based assay for Btk, EGFR, EphB2, Flt3, lrak4, Kdr, MAP2K1, MAPKAPK2, PDGFRB, PKC theta, Stk6 and Yes. For these assays, compounds of the invention were screened by Invitrogen using Z′-Lyte™ kinase assay.
Briefly, the Invitrogen kinase assay involves use of a specific peptide substrate optimized for each kinase, containing a fluorophore at each end that make up the FRET pair. The peptide sensitivity to proteolytic cleavage depends on phosphorylation of the peptide. Non-phosphorylated peptide is cleaved by a protease while peptide phosphorylated by the kinase is not cleaved. Cleavage of the peptide disrupts the FRET between the donor (coumarin) and acceptor (fluorescein) fluorophores, resulting in an increase in the ratio of donor emission to acceptor emission. The emission ratio of coumarin to fluorescein is used to assess the reaction progress. The extent of phosphorylation is determined from the emission ratio, which is low when the kinase is active (phosphorylated peptide is not cleaved, FRET pair connected) or higher for inhibited kinase (non-phosphorylated peptide is cleaved, FRET pair separated). Thus, the assay involves a kinase reaction in the presence of varying concentrations of a given compound, a development reaction with site specific protease, and detection of the fluorescent emission ratio of coumarin and fluorscein. […] Reaction conditions for each kinase are determined to provide optimal reaction times, incubation temperature, kinase and ATP concentrations. Test samples are made up in 1× kinase buffer (50 mM HEPES pH 7.5, 50 mM MgCl2, 5 mM EGTA, 0.05% BRIJ-35) and compound at desired concentration prepared in DMSO such that the final DMSO is 1%. […] Typically, assay plates are prepared to 10 μl final volume per sample, adding 2.5 μl of compound at 4× the desired concentration in 4% DMSO (serial dilution of compound provides concentration curve), 5 μl of the desired kinase mixed with Z′-LYTE™ peptide substrate (2× in 2× kinase buffer, final peptide at 2 μM), and 2.5 μl of 4×ATP solution. All kinase except for MAP2K1 were at 10 μM ATP in the kinase reaction, while MAP2K1 was at 100 μM. Samples are mixed and the kinase reaction is incubated 1 hour at room temperature, after which 5 μl of development solution is added and mixed. After incubation for another 1 hour at room temperature, 5 μl of stop reagent is added to each sample and mixed. The fluorescence signals are measured to determine the emission ratio.

[6] = target: T6, Src (Homo sapiens, UniProt P12931); test: AlphaScreen kinase assay, Src; details: read-out: IC50, activity toward kinase Src
T6 construct: P1144. pET-N6 BI-PTP SRC V86-L536-X; made in house

[7] = target: T7, B-Raf V600E (Homo sapiens, UniProt P15056, V600E); test: AlphaScreen kinase assay, B-Raf V600E; details: read-out: IC50, activity toward kinase B-Raf V600E
T7 construct: P4254. pFastBacBD-CDC37 BRAF D437-K722-X, V600E; His6 with pFastBac HT leader (TEV site) (N); made in house; host or cells: Sf9 (baculovirus; chaperone CDC37 co-expressed)
T7 sequence (P15056 with tags, fused parts or gaps V600E): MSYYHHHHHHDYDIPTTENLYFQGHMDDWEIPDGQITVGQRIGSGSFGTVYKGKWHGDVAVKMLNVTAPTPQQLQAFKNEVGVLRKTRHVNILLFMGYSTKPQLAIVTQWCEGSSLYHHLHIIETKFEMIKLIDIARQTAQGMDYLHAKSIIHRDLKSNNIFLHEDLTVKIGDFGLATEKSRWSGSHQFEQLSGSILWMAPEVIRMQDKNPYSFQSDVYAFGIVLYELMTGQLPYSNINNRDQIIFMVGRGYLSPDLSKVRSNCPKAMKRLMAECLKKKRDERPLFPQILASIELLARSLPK

[8] = target: T8, Ret (Homo sapiens, UniProt P07949); test: AlphaScreen kinase assay, Ret; details: read-out: IC50, activity toward kinase Ret
T8 construct: P1378.pET-SF BI-PTP RET H661-R1012 HIS; made in house
T8 sequence (P07949 with tags, fused parts or gaps): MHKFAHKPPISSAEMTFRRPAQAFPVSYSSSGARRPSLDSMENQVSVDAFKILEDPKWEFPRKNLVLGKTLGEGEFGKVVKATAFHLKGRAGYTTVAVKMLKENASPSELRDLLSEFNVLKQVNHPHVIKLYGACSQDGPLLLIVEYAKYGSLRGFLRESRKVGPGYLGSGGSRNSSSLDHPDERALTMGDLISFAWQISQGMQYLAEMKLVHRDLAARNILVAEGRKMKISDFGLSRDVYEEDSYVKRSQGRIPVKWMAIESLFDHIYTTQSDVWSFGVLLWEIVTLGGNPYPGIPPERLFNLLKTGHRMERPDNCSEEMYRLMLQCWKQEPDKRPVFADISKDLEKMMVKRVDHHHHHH

[9] = target: T9, c-Raf-1 (Homo sapiens, UniProt P04049); test: AlphaScreen kinase assay, c-Raf-1; details: read-out: IC50, activity toward kinase c-Raf-1
T9 construct: purchased Upstate Biotechnology
T9 sequence (P04049 whole entry): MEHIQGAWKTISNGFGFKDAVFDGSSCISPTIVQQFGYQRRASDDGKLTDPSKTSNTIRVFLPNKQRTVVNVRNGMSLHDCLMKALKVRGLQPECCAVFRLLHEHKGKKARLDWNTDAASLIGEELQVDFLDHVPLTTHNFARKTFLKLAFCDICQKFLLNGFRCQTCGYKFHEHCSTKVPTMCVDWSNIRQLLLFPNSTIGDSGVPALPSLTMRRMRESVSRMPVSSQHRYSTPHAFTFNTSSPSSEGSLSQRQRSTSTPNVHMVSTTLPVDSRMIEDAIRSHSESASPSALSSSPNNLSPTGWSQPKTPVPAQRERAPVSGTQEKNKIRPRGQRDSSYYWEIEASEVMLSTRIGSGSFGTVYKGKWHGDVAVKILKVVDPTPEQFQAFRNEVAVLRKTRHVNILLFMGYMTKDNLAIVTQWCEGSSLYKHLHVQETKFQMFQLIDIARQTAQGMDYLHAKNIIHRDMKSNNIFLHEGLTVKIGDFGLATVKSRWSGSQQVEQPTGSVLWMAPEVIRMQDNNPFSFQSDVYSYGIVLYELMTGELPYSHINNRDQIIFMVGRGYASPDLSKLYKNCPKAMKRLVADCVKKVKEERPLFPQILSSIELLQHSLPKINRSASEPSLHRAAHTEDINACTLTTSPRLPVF

[10] = target: T10, B-Raf (Homo sapiens, UniProt P15056); test: AlphaScreen kinase assay, B-Raf; details: read-out: IC50, activity toward kinase B-Raf
T10 construct: purchased Upstate Biotechnology
T10 sequence (P15056 whole entry): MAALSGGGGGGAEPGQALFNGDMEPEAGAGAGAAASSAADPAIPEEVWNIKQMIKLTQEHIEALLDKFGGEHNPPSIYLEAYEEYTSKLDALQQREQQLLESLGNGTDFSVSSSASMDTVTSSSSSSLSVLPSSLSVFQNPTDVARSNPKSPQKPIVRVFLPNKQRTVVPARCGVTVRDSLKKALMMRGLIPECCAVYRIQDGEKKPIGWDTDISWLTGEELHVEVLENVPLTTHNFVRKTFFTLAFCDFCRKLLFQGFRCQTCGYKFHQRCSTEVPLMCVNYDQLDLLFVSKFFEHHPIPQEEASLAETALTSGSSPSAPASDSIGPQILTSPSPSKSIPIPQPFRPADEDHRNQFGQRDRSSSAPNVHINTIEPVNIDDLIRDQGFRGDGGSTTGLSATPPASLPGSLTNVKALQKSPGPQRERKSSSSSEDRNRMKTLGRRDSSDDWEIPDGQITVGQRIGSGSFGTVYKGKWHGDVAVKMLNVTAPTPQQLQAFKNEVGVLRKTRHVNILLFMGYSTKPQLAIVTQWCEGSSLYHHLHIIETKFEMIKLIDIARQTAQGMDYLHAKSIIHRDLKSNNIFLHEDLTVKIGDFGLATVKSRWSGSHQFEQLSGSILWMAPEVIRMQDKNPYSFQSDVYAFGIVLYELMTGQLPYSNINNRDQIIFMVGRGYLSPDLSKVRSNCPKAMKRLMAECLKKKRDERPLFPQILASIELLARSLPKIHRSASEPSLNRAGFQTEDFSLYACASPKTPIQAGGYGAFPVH

[11] = target: T11, Zap70 (Homo sapiens, UniProt P43403); test: AlphaScreen kinase assay, Zap70; details: read-out: IC50, activity toward kinase Zap70
T11 construct: P1868.pFastBac1 ZAP70 D327-G606 HIS, WT; His7 (HHHHHHH) (C); made in house
T11 sequence (P43403 with tags, fused parts or gaps): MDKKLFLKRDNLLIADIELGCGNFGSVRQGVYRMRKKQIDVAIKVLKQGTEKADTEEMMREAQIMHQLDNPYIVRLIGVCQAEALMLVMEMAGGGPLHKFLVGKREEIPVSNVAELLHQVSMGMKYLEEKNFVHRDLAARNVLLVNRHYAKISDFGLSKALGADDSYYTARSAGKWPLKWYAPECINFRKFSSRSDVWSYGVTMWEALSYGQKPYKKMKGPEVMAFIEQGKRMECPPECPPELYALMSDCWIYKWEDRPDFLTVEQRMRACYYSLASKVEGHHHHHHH
Text: AlphaScreen assay was used to screen additional kinases. The assay is similarly dependent on the phosphorylation of a peptide substrate. In this assay, an antibody that recognizes phosphorylated substrate is bound to an acceptor bead. The peptide substrate is attached to biotin, which binds to a donor head that contains streptavidin. Thus phosphorylated substrate is bound by antibody and streptavidin, bringing the donor and acceptor heads into close proximity when kinase is not inhibited. The donor produces singlet oxygen which results in emission from the acceptor when they are in close proximity. Conversely, when kinase is inhibited, the donor and acceptor beads are not associated and the emission from the acceptor is reduced.
AlphaScreen assays were done using compounds dissolved in DMSO to a concentration of 20 mM. The compounds were diluted accordingly to the desired final concentrations in each sample well, using 1:3 serial dilution for a total of 8 concentration points.

[12] = target: T12, Pyk2 (Homo sapiens, UniProt Q14289); test: AlphaScreen kinase assay, Pyk2; details: read-out: IC50, activity toward kinase Pyk2
T12 construct: purchased Upstate Biotechnology
T12 sequence (Q14289 whole entry): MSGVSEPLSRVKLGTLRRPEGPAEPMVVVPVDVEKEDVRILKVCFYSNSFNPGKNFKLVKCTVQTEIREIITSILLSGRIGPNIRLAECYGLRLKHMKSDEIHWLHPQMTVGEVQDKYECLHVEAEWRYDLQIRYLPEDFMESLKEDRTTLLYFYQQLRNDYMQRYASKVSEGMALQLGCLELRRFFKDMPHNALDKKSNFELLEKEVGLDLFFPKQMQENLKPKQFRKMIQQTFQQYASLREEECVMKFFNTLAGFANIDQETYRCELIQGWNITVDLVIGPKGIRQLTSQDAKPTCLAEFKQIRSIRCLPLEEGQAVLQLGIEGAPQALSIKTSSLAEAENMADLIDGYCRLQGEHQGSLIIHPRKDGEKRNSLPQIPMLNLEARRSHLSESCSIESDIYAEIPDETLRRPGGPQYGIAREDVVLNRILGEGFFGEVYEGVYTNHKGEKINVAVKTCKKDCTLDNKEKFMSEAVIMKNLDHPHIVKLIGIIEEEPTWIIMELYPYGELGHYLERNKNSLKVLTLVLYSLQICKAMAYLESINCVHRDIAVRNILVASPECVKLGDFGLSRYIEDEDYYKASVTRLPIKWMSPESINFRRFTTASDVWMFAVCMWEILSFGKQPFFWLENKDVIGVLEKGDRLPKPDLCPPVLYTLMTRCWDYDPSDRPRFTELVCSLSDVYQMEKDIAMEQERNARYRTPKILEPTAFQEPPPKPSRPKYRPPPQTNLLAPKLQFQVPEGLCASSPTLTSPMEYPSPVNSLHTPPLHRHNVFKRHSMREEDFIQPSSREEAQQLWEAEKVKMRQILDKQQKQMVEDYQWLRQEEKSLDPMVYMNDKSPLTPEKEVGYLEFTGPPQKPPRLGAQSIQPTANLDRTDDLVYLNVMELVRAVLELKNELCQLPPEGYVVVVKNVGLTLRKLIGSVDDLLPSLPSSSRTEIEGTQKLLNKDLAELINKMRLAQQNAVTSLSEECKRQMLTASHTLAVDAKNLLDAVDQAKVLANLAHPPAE

[13] = target: T13, Stk6 (Homo sapiens, UniProt O14965); test: Z'-Lyte FRET kinase assay (Invitrogen), Stk6; details: read-out: IC50, activity toward kinase Stk6
T13 construct: purchased Invitrogen (Carlsbad, Calif.), screening service
T13 sequence (O14965 1-403): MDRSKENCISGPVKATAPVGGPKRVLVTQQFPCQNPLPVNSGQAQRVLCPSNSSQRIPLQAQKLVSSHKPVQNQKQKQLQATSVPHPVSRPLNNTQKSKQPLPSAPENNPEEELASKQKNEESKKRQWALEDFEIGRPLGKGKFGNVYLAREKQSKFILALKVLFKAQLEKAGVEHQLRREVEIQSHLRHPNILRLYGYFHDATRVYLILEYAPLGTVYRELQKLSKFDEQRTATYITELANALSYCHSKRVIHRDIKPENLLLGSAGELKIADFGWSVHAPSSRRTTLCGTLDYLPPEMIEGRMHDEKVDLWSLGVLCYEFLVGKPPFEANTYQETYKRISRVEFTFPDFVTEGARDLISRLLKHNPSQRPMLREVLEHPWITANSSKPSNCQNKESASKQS

SMILES | IC50 [11] [µM] | further results
CS(=O)(=O)Nc1ccc(F)c(C(=O)c2c[nH]c3ncc(-c4cccc(S(C)(=O)=O)c4)cc23)c1F [Compound P-0210] |  | IC50 [1]: ≤ 10 µM; IC50 [2]: ≤ 10 µM; IC50 [3]: ≤ 10 µM; IC50 [4]: ≤ 10 µM; IC50 [5]: ≤ 10 µM; IC50 [6]: ≤ 10 µM; IC50 [7]: ≤ 10 µM; IC50 [8]: ≤ 10 µM; IC50 [9]: ≤ 10 µM; IC50 [10]: ≤ 10 µM
COCc1c[nH]c2ncccc12 [Compound P-1197] | ≤ 10 | 
O=C(CCc1c[nH]c2ncccc12)NCc1cccnc1 [Compound P-0456] | ≤ 10 | 
c1cncc(-c2ccnc3[nH]ccc23)c1 [Compound P-0387] | ≤ 10 | 
COC(=O)c1ccc(CCc2c[nH]c3ncccc23)cc1 [Compound P-0586] | ≤ 10 | 
O=C(OCc1ccccc1)c1cnc2[nH]ccc2c1 [Compound P-0607] | ≤ 10 | 
COc1cccc(-c2ccc(S(=O)(=O)NCc3c[nH]c4ncccc34)s2)c1 [Compound P-0676] | ≤ 10 | 
O=C(Nc1ccc(F)c(C(O)c2c[nH]c3ncc(-c4cccnc4)cc23)c1F)OCc1ccccc1 (centres unmarked) [Compound P-0095, {2,4-Difluoro-3-[hydroxy-(5-pyridin-3-yl-1H-pyrrolo[2,3b]pyridin-3-yl)-methyl]-phenyl}-carbamic acid benzyl ester] |  | IC50 [5]: ≤ 10 µM; IC50 [7]: ≤ 10 µM; IC50 [8]: ≤ 10 µM; IC50 [12]: ≤ 10 µM; IC50 [10]: ≤ 10 µM
Cc1[nH]c2ncccc2c1-c1ccc(C(C)(C)C)cc1 [Compound P-0953] | ≤ 10 | 
O=S(=O)(NCc1c[nH]c2ncccc12)c1cccc(-c2cccc(CO)c2)c1 [Compound P-0484] | ≤ 10 | 
FC(F)(F)c1ccc(-c2ccnc3[nH]ccc23)cc1 [Compound P-0694] | ≤ 10 | 
CCOC(=O)C(Cc1c[nH]c2ncccc12)C(=O)OCC [Compound P-0642] | ≤ 10 | 
COc1ccc(OC)c(S(=O)(=O)NCc2c[nH]c3ncccc23)c1 [Compound P-0808] | ≤ 10 | 
O=S(=O)(NCc1c[nH]c2ncccc12)c1ccc(O)cc1 [Compound P-0859] | ≤ 10 | 
Clc1ccnc2[nH]ccc12 [Compound P-0342] | ≤ 10 | 
COCCN1CCN(Cc2[nH]c3ncccc3c2-c2ccc(C(N)=O)cc2)CC1 [Compound P-0856] | ≤ 10 | 
O=S(=O)(NCc1c[nH]c2ncccc12)c1ccc(Cl)s1 [Compound P-0930] | ≤ 10 | 
Clc1ccc(/C=C\c2c[nH]c3ncccc23)cn1 [Compound P-0360] | ≤ 10 | 
COc1ccc(S(=O)(=O)NCc2ccnc3[nH]ccc23)cc1 [Compound P-0724] | ≤ 10 | 
CCCOc1ccc(-c2c[nH]c3ncccc23)cc1 [Compound P-0878] | ≤ 10 | 
O=C(c1ccccc1)c1c[nH]c2c1cc(Br)c[n+]2[O-] [Compound P-0275] | ≤ 10 | 
Fc1ccc(Cc2nc(-c3c[nH]c4ncccc34)no2)cc1 [Compound P-0602] | ≤ 10 | 
N#Cc1ccc(/C=C\c2c[nH]c3ncccc23)cc1 [Compound P-0500] | ≤ 10 | 
Cc1cccc(-c2ccnc3[nH]cc(CNS(=O)(=O)c4ccc([N+](=O)[O-])cc4)c23)c1 [Compound P-0888] | ≤ 10 | 
CN(Cc1ccncc1)Cc1[nH]c2ncccc2c1-c1ccc(C(N)=O)cc1 [Compound P-0727] | ≤ 10 | 
CCCS(=O)(=O)Nc1ccc(F)c(C(O)c2c[nH]c3ncc(Br)cc23)c1F (centres unmarked) [Compound P-0188, Propane-1-sulfonic acid {3-[(5-bromo-1H-pyrrolo[2,3-b]pyridin-3-yl)-hydroxy-methyl]-2,4-difluoro-phenyl}-amide] |  | IC50 [5]: ≤ 10 µM; IC50 [7]: ≤ 10 µM; IC50 [13]: ≤ 10 µM; IC50 [12]: ≤ 10 µM; IC50 [9]: ≤ 10 µM; IC50 [10]: ≤ 10 µM
O=Cc1c[nH]c2nccc(Cl)c12 [Compound P-0649] | ≤ 10 | 
Cc1[nH]c2ncccc2c1-c1ccc(F)c(F)c1 [Compound P-0929] | ≤ 10 | 
Cc1cc2cccnc2[nH]1 [Compound P-0394] | ≤ 10 | 
